The results in this text go back to patent US10947223B2, “Substituted oxazines as beta-secretase inhibitors” (AMGEN INC., priority 2016, dated 2021).

The target in one assay is human recombinant BACE2 (Homo sapiens (Human), UniProt Q9Y5Z0). The assay is described as follows: In vitro enzymatic BACE2 FRET assay. The format is biochemical. Particulars: pH 4.5, read-out: BACE2 Enzyme IC50. Here is the method:
(§1) In Vitro Enzymatic BACE1 and BACE2 FRET (Fluorescence Resonance Energy Transfer) Assays
(§2) The cDNAs for both human recombinant BACE1 and 2 with C-terminal 6-His Tags were cloned into transient protein expression vectors, which were subsequently transfected into mammalian cell lines. These recombinant proteins were further purified using Ni-NTA affinity chromatography (Qiagen). The assay buffer used in these screens was 0.05 M acetate, pH 4.5, 8% DMSO final, 100 μM genapol (which is a nonionic detergent, below its Critical Micelle Concentration). The β-secretase enzyme (0.02 nM for BACE1 and 0.64 nM for BACE2), which was pre-incubated for one hour with the test compound, typically in about 1 uL of DMSO according to a serial dilution, was added thereto. The assay was effectively started by the addition of FRET substrate (50 nM) and the combination was incubated for one hour. The FRET assay was terminated by the addition of tris buffer, which raised the pH to neutrality, and the fluorescence was determined. The FRET substrate was a peptide with commercially available fluorophore and quencher, on opposite sides of the BACE cleavage site. The specific FRET substrate used in this assay was made by Amgen in-house. Commercially available FRET substrates, for example, the FRET substrate offered with the BACE1 FRET Assay Kit sold by ThermoFisher Scientific (Catalog Number P2985), may be used in this assay with the appropriate modifications, which are within the purview of the ability of a person with ordinary skill in the art. Proteolytic cleavage of the FRET substrate released quenching of fluorescence (excitation 488 nm and emission 590 nm).

Assay [1] has as its target T1, BACE1 (Homo sapiens (Human), UniProt P56817). The assay is described as follows: In vitro BACE1 cell-based assay (Aβ40 in conditioned medium, HTRF). The following applies: Aβ40 in conditioned medium of cells expressing APP, 24 h. Here is the method: In Vitro BACE1 Cell-Based Assay
The cell-based assay measures inhibition or reduction of Aβ40 in conditioned medium of test compound treated cells expressing amyloid precursor protein. Cells stably expressing Amyloid Precursor Protein (APP) were plated at a density of 45K cells/well in 384 well plates (Corning/BioCoat 354663). The test compounds were then added to cells in 22-point dose response concentrations with the starting concentration being 62.5 μM. The compounds were diluted from stock solutions in DMSO and the final DMSO concentration of the test compounds on cells was 0.625%. The cells were cultivated overnight at 37° C. and 5% CO2 in DMEM supplemented with 10% FBS. After 24 h of incubation with the test compounds, the conditioned media was collected and the Aβ40 levels were determined using HTRF (Homogeneous Time Resolved Fluorescence). The IC50 of the compound was calculated from the percent of control or percent inhibition of Aβ 40 as a function of the concentration of the test compound.
The HTRF to detect Aβ40 was performed in 384 well plates (Costar 3658). The antibody pair that were used to detect Aβ 40 from cell supernatants were ConfAb40 antibody (Amgen in-house) and biotinylated 6E10 (BIOLEGEND). As an alternative to ConfAb40, a commercially available antibody, Anti-beta Amyloid 1-40 antibody [BDI350] from Abcam, Cambridge, Mass. 02139-1517 (Product code: ab20068), may be used in this assay. The concentrations were 0.35 μg/mL of ConfAb40 antibody and 1.33 μg/mL of 6E10-biotinylated antibody, as well as 4.5 μg/mL of Streptavidin Allophycocyanin Conjugate (ThermoFisher Scientific) in HTRF Buffer ([…], 1% BSA, 0.5% Tween 20).
The conditioned media was incubated with above antibodies and Streptavidin Allophycocyanin Conjugate for 30-60 minutes at 23° C. The final readout was performed on Envision from PerkinElmer.
Target sequence in this assay (P56817 46-501, species assumed): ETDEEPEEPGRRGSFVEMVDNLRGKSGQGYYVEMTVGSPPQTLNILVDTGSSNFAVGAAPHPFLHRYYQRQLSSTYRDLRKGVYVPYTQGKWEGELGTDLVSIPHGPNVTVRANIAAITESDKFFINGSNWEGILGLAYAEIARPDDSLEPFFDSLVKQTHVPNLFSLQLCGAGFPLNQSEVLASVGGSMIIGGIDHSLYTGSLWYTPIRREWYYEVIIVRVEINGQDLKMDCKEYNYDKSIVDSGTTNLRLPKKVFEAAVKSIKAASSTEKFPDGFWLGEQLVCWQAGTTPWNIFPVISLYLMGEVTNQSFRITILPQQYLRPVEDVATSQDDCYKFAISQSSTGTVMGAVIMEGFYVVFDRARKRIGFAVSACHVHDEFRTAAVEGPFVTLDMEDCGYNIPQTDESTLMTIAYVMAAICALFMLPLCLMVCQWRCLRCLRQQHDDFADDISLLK
A general note: TR-FRET usually uses a lanthanide donor and a delayed reading to cut background.

The target in assay [2] is T1, BACE1. Kind of assay: In vitro enzymatic BACE1 FRET assay. Format: biochemical. Particulars: pH 4.5, read-out: BACE1 Enzyme IC50. Here is the method: as §1, §2
Target sequence in this assay (P56817 46-501): as the sequence (P56817 46-501, species assumed) above
For the next assay, the target named is Recombinant CatD (Homo sapiens (Human), UniProt P07339). Kind of assay: In vitro enzymatic Cathepsin D (CatD) FRET assay. Particulars: pH 3.5, read-out: CatD Enzyme IC50. The format is biochemical. Here is the method: In Vitro Enzymatic Cathepsin D (CatD) FRET Assay
Recombinant CatD was expressed in CHO cells. The assay buffer for CatD was 0.05 M citrate pH 3.5, 10% DMSO final, 5 mM CHAPS. The CatD enzyme (9 nM) was pre-incubated for one hour with inhibitors, typically in about 1 uL of DMSO according to a serial dilution, is added thereto. The assays was effectively started by the addition of different FRET substrates (20 nM for CatD) and the combination was incubated for one hour. The FRET assay was terminated with by addition of tris buffer, which raises the pH to neutrality, and the fluorescence was determined. The FRET substrate was a peptide with commercially available fluorophore and quencher, on opposite sides of the CatD cleavage site. The CatD substrate peptide sequence was based on sequence #1 of Table 1 from Gulnik et al., FEBS Lett. 413(2):379-384 (1997). Proteolytic cleavage of the FRET substrate released quenching of fluorescence (CatD excitation 500 nm and emission 580 nm).
The in vitro CatD FRET assay data for each of the Examples is provided in Table 2, conducted by the first procedure described above. […] Thus, with this surprising selectivity profile, the compounds provided herein are believed to minimize, reduce or completely eliminate any risk of retinal atrophy and abnormal development of the eye and of the retinal pigmented epithelium as it relates to the normal function and activity of CatD.

The structures appear in SMILES notation. Bounds are passed on as bounds.

Recombinant CatD, sequence (P07339 65-412): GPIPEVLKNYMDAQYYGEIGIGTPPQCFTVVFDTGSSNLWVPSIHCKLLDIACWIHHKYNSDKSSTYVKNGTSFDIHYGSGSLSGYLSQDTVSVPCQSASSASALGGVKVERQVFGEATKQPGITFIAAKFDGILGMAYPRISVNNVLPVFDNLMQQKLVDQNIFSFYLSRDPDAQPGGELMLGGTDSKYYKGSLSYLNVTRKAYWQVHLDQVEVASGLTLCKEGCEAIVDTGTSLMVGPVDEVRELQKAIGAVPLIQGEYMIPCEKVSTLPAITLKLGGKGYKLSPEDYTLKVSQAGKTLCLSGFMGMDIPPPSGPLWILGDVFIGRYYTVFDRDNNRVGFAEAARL
human recombinant BACE2, sequence (Q9Y5Z0 63-518): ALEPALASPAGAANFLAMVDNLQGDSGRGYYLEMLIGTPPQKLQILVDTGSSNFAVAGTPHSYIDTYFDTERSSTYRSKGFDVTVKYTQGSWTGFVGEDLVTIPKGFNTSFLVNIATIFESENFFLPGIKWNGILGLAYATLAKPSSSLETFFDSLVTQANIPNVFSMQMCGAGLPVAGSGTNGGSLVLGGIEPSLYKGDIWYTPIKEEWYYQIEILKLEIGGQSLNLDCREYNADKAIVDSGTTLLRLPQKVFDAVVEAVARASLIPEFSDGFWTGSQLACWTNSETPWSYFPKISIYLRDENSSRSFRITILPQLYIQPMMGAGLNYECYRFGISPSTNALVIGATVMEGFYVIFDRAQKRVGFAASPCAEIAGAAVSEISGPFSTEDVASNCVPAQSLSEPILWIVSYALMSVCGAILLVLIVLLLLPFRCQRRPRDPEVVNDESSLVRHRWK

For the molecule `C[C@@]1(c2cc(/C=C(\F)c3cnc(C#N)cn3)ccc2F)CO[C@@](C)(C(F)(F)F)C(N)=N1` [Example 105, 5-((Z)-2-(3-((3R,6R)-5-amino-3,6-dimethyl-6-(trifluoromethyl)-3,6-dihydro-2H-1,4-oxazin-3-yl)-4-fluorophenyl)-1-fluorovinyl)pyrazine-2-carbonitrile], the IC50 (in general, the midpoint of a concentration-inhibition curve) on human recombinant BACE2 is 0.273 µM; against BACE1 [1], 0.13 µM; at BACE1 [2], 0.046 µM; at Recombinant CatD, 415 µM.
The matching figures for `CC#CCOc1cnc(/C(F)=C/c2ccc(F)c([C@@]3(C)N=C(N)OC[C@@H]3OCC(F)(F)F)c2)cn1` [Example 113, (4R,5R)-4-(5-((Z)-2-(5-(but-2-yn-1-yloxy)pyrazin-2-yl)-2-fluorovinyl)-2-fluorophenyl)-4-methyl-5-(2,2,2-trifluoroethoxy)-5,6-dihydro-4H-1,3-oxazin-2-amine]: 17.1 µM, 0.048 µM, 0.052 µM and 233 µM.
For `NC1=N[C@@](c2cc(/C=C(\F)c3ccc(Cl)cn3)ccc2F)(C(F)F)[C@H]2C[C@H]2O1` [Example 101, (1R,5S,6R)-5-(5-((Z)-2-(5-chloropyridin-2-yl)-2-fluorovinyl)-2-fluorophenyl)-5-(difluoromethyl)-2-oxa-4-azabicyclo[4.1.0]hept-3-en-3-amine] the same measures were 0.421 µM, 1.12 µM, 0.954 µM and 215 µM.
The matching figures for `C[C@@]1(c2nc(/C=C(\F)c3ccc(C#N)cn3)ccc2F)CO[C@@](C)(C(F)(F)F)C(N)=N1` [Example 117, 6-((Z)-2-(6-((3R,6R)-5-amino-3,6-dimethyl-6-(trifluoromethyl)-3,6-dihydro-2H-1,4-oxazin-3-yl)-5-fluoropyridin-2-yl)-1-fluorovinyl)nicotinonitrile]: 0.853 µM, 0.09 µM, 0.149 µM and 121 µM.
Turning to `C[C@]1(c2cc(/C=C(\F)c3ccc(C#N)cn3)ccc2F)N=C(N)OCC1(F)F` [Example 114, (R,Z)-6-(2-(3-(2-amino-5,5-difluoro-4-methyl-5,6-dihydro-4H-1,3-oxazin-4-yl)-4-fluorophenyl)-1-fluorovinyl)nicotinonitrile], the IC50 was 2.73 µM at human recombinant BACE2, 2.66 µM at BACE1 [1], 0.256 µM on BACE1 [2] and > 400 µM on Recombinant CatD.
For `C[C@]1(c2cc(/C=C(\F)c3cnc(Cl)cn3)ccc2F)N=C(N)OC[C@@H]1OCC(F)(F)F` [Example 110, (4R,5R)-4-(5-((Z)-2-(5-chloropyrazin-2-yl)-2-fluorovinyl)-2-fluorophenyl)-4-methyl-5-(2,2,2-trifluoroethoxy)-5,6-dihydro-4H-1,3-oxazin-2-amine] the same measures were 1.51 µM, 0.09 µM, 0.341 µM and 524 µM.
In the case of `C[C@@]1(c2cc(/C=C(\F)c3ccc(C#N)cn3)ccc2F)CO[C@@](C)(C(F)(F)F)C(N)=N1` [Example 104, 6-((Z)-2-(3-((3R,6R)-5-amino-3,6-dimethyl-6-(trifluoromethyl)-3,6-dihydro-2H-1,4-oxazin-3-yl)-4-fluorophenyl)-1-fluorovinyl)nicotinonitrile], the IC50 is 0.095 µM at human recombinant BACE2, 0.152 µM on BACE1 [1], 0.026 µM on BACE1 [2] and 204 µM at Recombinant CatD.
For `C#CCOc1cnc(/C(F)=C/c2ccc(F)c([C@]3(C)CO[C@@](C)(C(F)(F)F)C(N)=N3)c2)cn1` [Example 107, (2R,5R)-5-(2-fluoro-5-((Z)-2-fluoro-2-(5-(prop-2-yn-1-yloxy)pyrazin-2-yl)vinyl)phenyl)-2,5-dimethyl-2-(trifluoromethyl)-5,6-dihydro-2H-1,4-oxazin-3-amine] the same measures were 0.375 µM, 0.112 µM, 0.05 µM and 82.5 µM.
For `C#CCOc1cnc(/C(F)=C/c2ccc(F)c([C@@]3(C)N=C(N)OCC3(F)F)c2)cn1` [Example 115, (R,Z)-5,5-difluoro-4-(2-fluoro-5-(2-fluoro-2-(5-(prop-2-yn-1-yloxy)pyrazin-2-yl)vinyl)phenyl)-4-methyl-5,6-dihydro-4H-1,3-oxazin-2-amine] the same measures were 5.84 µM, 4.67 µM, 0.283 µM and 119 µM.
Take `C[C@@]1(c2cc(/C=C(\F)c3cnc(OCC(F)(F)C(F)F)cn3)ccc2F)CO[C@@](C)(C(F)(F)F)C(N)=N1` [Example 106, (2R,5R)-5-(2-fluoro-5-((Z)-2-fluoro-2-(5-(2,2,3,3-tetrafluoropropoxy)pyrazin-2-yl)vinyl)phenyl)-2,5-dimethyl-2-(trifluoromethyl)-5,6-dihydro-2H-1,4-oxazin-3-amine]: the IC50 at human recombinant BACE2 stood at 1.59 µM; at BACE1 [1], 4.13 µM; at BACE1 [2] it was 0.666 µM; on Recombinant CatD it was 88.4 µM.
For `C[C@]1(c2cc(/C=C(\F)c3ccc(C#N)cn3)ccc2F)N=C(N)OC[C@@H]1OCC(F)(F)F` [Example 109, 6-((Z)-2-(3-((4R,5R)-2-amino-4-methyl-5-(2,2,2-trifluoroethoxy)-5,6-dihydro-4H-1,3-oxazin-4-yl)-4-fluorophenyl)-1-fluorovinyl)nicotinonitrile] the same measures were 3.87 µM, 0.014 µM, 0.125 µM and 1190 µM.
For `C#CCOc1cnc(/C(F)=C/c2ccc(F)c([C@@]3(C)N=C(N)OC[C@@H]3OCC(F)(F)F)c2)cn1` [Example 111, (4R,5R)-4-(2-fluoro-5-((Z)-2-fluoro-2-(5-(prop-2-yn-1-yloxy)pyrazin-2-yl)vinyl)phenyl)-4-methyl-5-(2,2,2-trifluoroethoxy)-5,6-dihydro-4H-1,3-oxazin-2-amine] the same measures were 16 µM, 0.059 µM, 0.152 µM and 664 µM.
For `C[C@]1(c2nc(/C=C(\F)c3ccc(C#N)cn3)ccc2F)N=C(N)OCC1(F)F` [Example 116, (R,Z)-6-(2-(6-(2-amino-5,5-difluoro-4-methyl-5,6-dihydro-4H-1,3-oxazin-4-yl)-5-fluoropyridin-2-yl)-1-fluorovinyl)nicotinonitrile] the same measures were 11.4 µM, 0.676 µM, 1.05 µM and > 400 µM.
